{"source": "paper PMC7038234", "about": "“Screening of Natural Extracts for Inhibitors against Japanese Encephalitis Virus Infection” (Antimicrobial Agents and Chemotherapy, 2020)", "key": {"[1]": {"assay": "Cytotoxicity / cell viability on Vero cells", "details": "African green monkey"}, "[2]": {"tested_on": "JEV strains AT31 and SA14", "assay": "Plaque assay of virus production in culture supernatants (Vero, Huh-7, U251 cells)", "format": "cell-based, Japanese encephalitis virus"}, "JEV AT31": {"tested_on": "JEV AT31", "assay": "Addition of sodium and potassium assay (plaque assay)", "details": "Vero cells, AT31, NaCl 0-100 mM, KCl 0-25 mM"}, "JEV (AT31)": {"tested_on": "JEV (AT31)", "assay": "Antiviral efficacy in JEV-infected BALB/c mice", "format": "in vivo, BALB/c mouse", "method": "Adult male BALB/c mice (4 weeks) were randomly divided into three groups: the JEV-infected and vehicle (0.75% DMSO in normal saline)-treated group, the JEV-infected and ouabain-treated group, and the ouabain-treated group. For infection, mice were infected intraperitoneally (i.p.) with a dose of 1 × 10^6 PFU JEV (AT31). The infected mice were i.p. administered with ouabain at 3 mg/kg of body weight or a vehicle control every day for 21 consecutive days. Mice were sacrificed at day 1, 3, 7, 10, or 21, depending on the experimental design. Blood, spleen, and brain samples were collected for plaque assay, qRT-PCR, and histopathology investigation (Vectra ss; PerkinElmer).\nThe viral burden was determined by plaque assay. The samples were weighed and homogenized in 300 μl of PBS. The homogenates were clarified by centrifugation (2,000 × g at 4°C) for 15 min and then diluted serially prior to infection of BHK-21 cells. The viral titer was adjusted for sample volume and tissue weight to calculate the titer as PFU/g.\nTissue samples and blood from JEV-infected mice were extracted with the RNAprep pure tissue kit (Tiangen; catalog no. DP431) and RNAprep pure blood kit (Tiangen; catalog no. DP433), respectively. JEV RNA levels were determined by one-step qRT-PCR on ABI Real-Time PCR systems using standard cycling conditions. The viral burden was calculated on a standard curve produced using serial 10-fold dilutions of plasmids carrying the infectious clone.\nFor histopathology investigation, brain tissues were collected from the mice and fixed in 4% paraformaldehyde; the hematoxylin-eosin staining protocol was followed for tissue staining."}, "JEV SA14 replicon": {"tested_on": "JEV SA14 replicon", "assay": "JEV reporter replicon assay (Renilla luciferase) in Huh-7 cells", "details": "for JEV RNA synthesis (replicon luciferase signal): 24 h postelectroporation"}, "JEV [3]": {"tested_on": "JEV", "format": "cell-based, Japanese encephalitis virus"}, "JEV strain SA14 [4]": {"tested_on": "JEV strain SA14", "assay": "Immunofluorescence staining assay (IFA), SA14 infection of Vero cells"}, "JEV strain SA14 [5]": {"tested_on": "JEV strain SA14", "assay": "qRT-PCR of JEV RNA levels in Vero cell lysates", "format": "cell-based, Japanese encephalitis virus", "details": "Vero cells, high-, middle- and low-dose-treated groups"}, "JEV [6]": {"tested_on": "JEV", "details": "cited from earlier work"}, "[7]": {"details": "JEV-infected BALB/c mice, ouabain 3 mg/kg i.p. daily, 21 days"}}, "note": "Like-named read-outs stand apart in the source and are kept apart here."}
{"smiles": "Cc1cc(O)c2c(c1)C(=O)c1cc(O)cc(O)c1C2=O", "note": "[emodin]", "values": [{"measurement": "CC50", "setting": "[1]", "result": "> 100", "unit": "µM"}]}
{"smiles": "Oc1cc(O)c2c(c1)OC(c1ccc(O)c(O)c1)C(OC1(c3ccc(O)c(O)c3)Oc3cc(O)cc(O)c3C(O)C1O)C2", "note": "(centres unmarked) [procyanidin]", "values": [{"measurement": "CC50", "setting": "[1]", "result": "> 100", "unit": "µM"}]}
{"smiles": "COc1cc2c(c(OC)c1OC)-c1c(cc3c(c1OC)OCO3)CC(C)C(C)C2", "note": "(centres unmarked) [schizandrin B]", "values": [{"measurement": "CC50", "setting": "[1]", "result": "> 100", "unit": "µM"}]}
{"smiles": "COC1=CC23CCCN2CCc2cc4c(cc2C3C1O)OCO4", "note": "(centres unmarked) [cephalotaxlen]", "values": [{"measurement": "CC50", "setting": "[1]", "result": "> 100", "unit": "µM"}]}
{"smiles": "C[C@@H]1O[C@@H](O[C@H]2C[C@@H](O)[C@]3(CO)[C@H]4[C@H](O)C[C@]5(C)[C@@H](C6=CC(=O)OC6)CC[C@]5(O)[C@@H]4CC[C@]3(O)C2)[C@H](O)[C@H](O)[C@H]1O", "note": "[ouabain]", "values": [{"measurement": "reduction of AT31 and SA14 virus production", "setting": "[2]", "result": "4 to 6", "unit": "log units"}, {"measurement": "dependence of JEV-inhibiting effect on extracellular NaCl and KCl", "setting": "JEV AT31", "result": "positively correlated with extracellular NaCl but inversely correlated with KCl"}, {"measurement": "animals survived", "setting": "JEV (AT31); [7]", "result": "8 out of 14"}, {"measurement": "survival rate", "setting": "JEV (AT31); [7]", "result": "~60", "unit": "%"}, {"measurement": "histopathological changes in brain", "setting": "JEV (AT31); day 7 postinfection, meningitis, perivascular cuffing, vacuolar degeneration", "result": "remarkably alleviated"}, {"measurement": "plaques from brain on day 21 postinfection", "setting": "JEV (AT31); day 21 postinfection, plaque assay", "result": "no plaques formed"}, {"measurement": "viral load in brain (plaque assay)", "setting": "JEV (AT31); days 7, 10 and 21 postinfection, versus untreated infected mice", "result": "significantly reduced viral load"}, {"measurement": "effect on viral titers in the brain at the preclinical stage", "setting": "JEV (AT31); qRT-PCR, days 1 and 3 postinfection", "result": "little effect"}, {"measurement": "effect on decreasing viral titers in the blood and spleen", "setting": "JEV (AT31); qRT-PCR, earlier time points (days 1 and 3)", "result": "little effect"}, {"measurement": "behavior of mice treated with ouabain alone", "setting": "JEV (AT31); uninfected BALB/c mice, ouabain 3 mg/kg i.p. daily", "result": "little abnormal behavior"}, {"measurement": "initial translation of replicon RNA", "setting": "JEV SA14 replicon", "result": "neither drug inhibited"}, {"measurement": "JEV RNA synthesis (replicon luciferase signal)", "setting": "JEV SA14 replicon", "result": "inhibited JEV RNA synthesis in a dose-dependent manner"}, {"measurement": "CC50", "setting": "[1]", "result": "> 100", "unit": "µM"}, {"measurement": "adaptive (drug-resistant) mutant", "setting": "JEV [3]", "result": "no adaptive mutant was found"}, {"measurement": "SA14 reproduction", "setting": "JEV strain SA14 [4]; ouabain 98 nM", "result": "greatly inhibited"}, {"measurement": "attenuated RNA levels of the SA14 strain", "setting": "JEV strain SA14 [5]", "result": "above 40%"}]}
{"smiles": "C[C@H]1O[C@@H](O[C@H]2[C@@H](O)C[C@H](O[C@H]3[C@@H](O)C[C@H](O[C@H]4CC[C@@]5(C)[C@H](CC[C@@H]6[C@@H]5C[C@@H](O)[C@]5(C)[C@@H](C7=CC(=O)OC7)CC[C@]65O)C4)O[C@@H]3C)O[C@@H]2C)C[C@H](O)[C@@H]1O", "note": "[digoxin]", "values": [{"measurement": "reduction of AT31 and SA14 virus production", "setting": "[2]; Vero cells, plaque assay, highest concentration", "result": "4 to 6", "unit": "log units"}, {"measurement": "dependence of JEV-inhibiting effect on extracellular NaCl and KCl", "setting": "JEV AT31", "result": "positively correlated with extracellular NaCl but inversely correlated with KCl"}, {"measurement": "initial translation of replicon RNA", "setting": "JEV SA14 replicon", "result": "neither drug inhibited"}, {"measurement": "JEV RNA synthesis (replicon luciferase signal)", "setting": "JEV SA14 replicon", "result": "inhibited JEV RNA synthesis in a dose-dependent manner"}, {"measurement": "CC50", "setting": "[1]", "result": "> 100", "unit": "µM"}, {"measurement": "adaptive (drug-resistant) mutant", "setting": "JEV [3]", "result": "no adaptive mutant was found"}, {"measurement": "SA14 reproduction", "setting": "JEV strain SA14 [4]; digoxin 392 nM", "result": "greatly inhibited"}, {"measurement": "attenuated RNA levels of the SA14 strain", "setting": "JEV strain SA14 [5]", "result": "above 40%"}]}
{"smiles": "COc1cc2c(c(OC)c1OC)-c1c(cc(OC)c(OC)c1OC)C[C@H](C)[C@H](C)C2", "note": "[schizandrin A]", "values": [{"measurement": "CC50", "setting": "[1]", "result": 100, "unit": "µM"}]}
{"smiles": "COC(=O)C1=C(C)NC(C)=C(C(=O)OCCN2CCN(C(c3ccccc3)c3ccccc3)CC2)C1c1cccc([N+](=O)[O-])c1", "note": "(centres unmarked) [manidipine]", "values": [{"measurement": "JEV infection", "setting": "JEV [6]", "result": "inhibited JEV infection in vitro and in vivo"}]}
{"smiles": "O[C@H]1[C@H]2c3cc4c(cc3CN3CCC(=C[C@@H]1O)[C@H]23)OCO4", "note": "[lycorine]", "values": [{"measurement": "CC50", "setting": "[1]", "result": "> 100", "unit": "µM"}]}
{"smiles": "CCCCCCN(CCCCCC)C(=O)Cc1c(-c2ccc(F)cc2)[nH]c2ccccc12", "note": "[FGIN-1-27]", "values": [{"measurement": "JEV infection", "setting": "JEV [6]", "result": "reduced the JEV infection in vitro"}]}
